Data reported in US20250154140A1 (Sunnybrook Research Institute, priority 2022, published 2025).

What was measured:
[1] = test system: diverse panel of 58 kinases; assay: Kinase panel (Eurofins KinaseProfiler); assay type: biochemical; settings: 1 uM
Experimental: For the kinase panel, % inhibition was measured using standardized assay conditions at the KinaseProfiler service (Eurofins Pharma Discovery Services). Compounds were sent for testing as dry powder.

BAX = BAX (Homo sapiens, UniProt Q07812); assay: 1H-15N HSQC NMR chemical shift perturbations with 15N-labelled BAX; assay type: binding; set-up: NMR experiments used full-length WT BAX at a concentration of 200 μM; made in house; host or cells: Escherichia coli BL21-AI (minimal media, 15N); settings: 200 uM BAX
Sequence of BAX (Q07812 whole entry): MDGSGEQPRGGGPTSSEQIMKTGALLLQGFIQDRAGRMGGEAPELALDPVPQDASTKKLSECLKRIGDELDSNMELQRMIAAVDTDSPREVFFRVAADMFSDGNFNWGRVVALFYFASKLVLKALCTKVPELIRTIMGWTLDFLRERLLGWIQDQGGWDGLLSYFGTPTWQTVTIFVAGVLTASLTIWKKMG
Experimental: All experiments were performed using an independent sample for each measurement and were DMSO matched to account for environment changes due to the solvent. ^15N-labeled BAX was prepared as described above in 50 mM potassium phosphate pH 6, 50 mM NaCl, and 10% D2O. Samples were mixed before loading 40 μL in a 1.7 mm sample tube. […] NMR experiments used full-length WT BAX at a concentration of 200 μM. Experiments were conducted on a 600 MHz Bruker Avance magnet at 25° C. Chemical shift perturbations (CSP) were calculated in CCPNMRv3 using an automated analysis, where all peaks were matched to their extrema and calculated using the equation: […]
In the CSP equation above, α denotes the relative weighting of chemical shift changes of the ^15N relative to ^1H nuclei. ΔδHX and ΔδNx are the observed changes of the proton and nitrogen chemical shifts for residue x, respectively. As a note, all amino acid positions on the HSQC were manually inspected to use the extrema of the nearest identified peak. The absence of a bar in the CSP graph indicates no chemical shift, the presence of a proline, or a missing residue peak not used for analysis. Significance threshold was calculated as the average of chemical shifts across all residues plus the standard deviation. […]

V83W L120W BAX = molecular target: T1, V83W L120W BAX (Homo sapiens, UniProt Q07812, L120W/V83W); assay: ANTS/DPX liposome permeabilization with BAX mutant; assay type: biochemical; settings: 100 nM V83W L120W BAX, 20 nM cBID, 20 uM compound
T1 construct: made in house
T1 sequence (Q07812 whole entry V83W/L120W): as the sequence (Q07812 whole entry) above, with V83W, L120W counted along it
Experimental: For ANTS/DPX dye release assays: ANTS (fluorophore; excitation 355 nm, emission 520 nm) and DPX (collisional quencher) are encapsulated in reconstituted liposomes. When the membrane is permeabilized, ANTS and DPX diffuse to the outside of the liposomes, decreasing the effective concentration DPX and therefore quenching by […] is decreased and ANTS fluorescence increases. ANTS/DPX liposomes (8 uL of mg/mL liposome preparation per 100 μL of reaction) were added to individual wells of multi-well plates (100 μL final volume for 96 well plates or (30 μL total volume for 384 well plates) in assay buffer (10 mM HEPES pH 7.2, 200 mM KCl, and 5 mM MgCl2). The background fluorescence of the liposomes and the compound dissolved in DMSO was measured for 10 minutes to ensure fluorescent signal stabilized (F0). Unless explicitly stated, 20 nM cBID and 100 nM BAX were added sequentially to each well and mixed thoroughly. The fluorescence intensity of ANTS was measured every minute for 2-3 hours until the signal stabilizes at a plateau (F). […] The plate was then read a third time to assess the fluorescence of ANTS upon full dissociation of liposomes in each well (F100). The percentage of dye release from the liposomes due to the action of cBID and BAX is calculated as: […]

SMILES	activity across kinase panel (percent kinase inhibition) [1]	binding to BAX (chemical shift perturbations) (BAX)	inhibition of mutant BAX (V83W L120W BAX)
COc1cc2ccnc(Nc3ccc(F)c(Cl)c3)c2cc1NC(=O)CCCN1CCCCC1 [Compound I-1, N-(1-((3-chloro-4-fluorophenyl)amino)-6-methoxyisoquinolin-7-yl)-4-(piperidin-1-yl)butanamide]	minimal activity	bind the cytosolic conformation of BAX	
COc1cc2ncnc(Nc3ccc(F)c(Cl)c3)c2cc1NC(=O)/C=C/CN1CCCCC1 [Dacomitinib, reference compound]			reduced inhibition
